Experimental findings from patent US11634458B2, “Peptides and compositions for use in cosmetics and medicine” (LIPOTRUE, S.L., priority 2018, dated 2023) are described below.

Assay [1] deals with human skeletal muscle cells. Kind of assay: Calcium mobilization assay (Fluo-4 NW) after 60 mM KCl. It is filed as cell-based. The note with it: 48 hours, vs untreated control. The procedure:
The potential of said peptide Ac-SEQ ID NO: 8-NH2 to reduce calcium mobilization on human skeletal muscle cells was evaluated in vitro with Fluo-4 NW Calcium Assay Kit (ThermoFisher Scientific, MA USA). Briefly, human skeletal muscle myoblasts were seeded in quintuplicates in a black 96-well plate, clear bottom, at a density of 1×10^4 cells/well and maintained at standard culture conditions (37° C., 95% humidity, 5% CO2) for 48-72h. Myoblast differentiation to myocyte was then induced with specific differentiation medium (SKM-D medium+1% a/a) and monitored for 7 more days. Differentiated cells were treated with non-cytotoxic concentrations of peptide Ac-SEQ ID NO: 8-NH2 (0.01 mg/mL, 0.05 mg/mL and 0.1 mg/mL) for additional 48 hours.
Once incubation was finished, cell culture medium was replaced by 100 μl of Dye loading solution and the plate was kept on the incubator for 30 minutes. Dye solution was then replaced by assay buffer prior to calcium measurement using FLUOstar Omega instrument (BMG Labtech, Germany). For appropriate kinetic measurement, a pre-stimulus phase of 10 seconds was set to determine the baseline signal before induction of calcium influx by addition of 60 mM KCl. Post-stimulus phase was set at 90 seconds, with readings every 0.1 seconds at 494/516 nm (excitation/emission).
The following steps were performed for data analysis: 1) Calculation of a mean kinetic curve for each condition; 2) determination of maximum fluorescent signal for each curve after stimulation with KCl; 3) calculation of the fold change increase versus baseline; 4) normalization of results obtained for each condition (each peptide concentration) versus the one obtained for the control (untreated cells).
(A change in cytosolic calcium serves as a functional read-out for many receptors and channels.)

In the next assay the test system is myosin heavy chain. The assay is described as follows: Myosin heavy chain protein decrease by immunofluorescence. It is filed as cell-based, human. To be noted: vs non-treated cells; for reduction of myosin heavy chain protein levels: 48 hours. The procedure: The potential of said peptide Ac-SEQ ID NO: 8-NH2 to decrease the expression of the protein myosin heavy chain in human skeletal muscle cells was evaluated in vitro by immunofluorescence using a specific antibody against this protein (Biotechne, USA) followed by a secondary fluorescent antibody (Thermofisher, USA). Briefly, human skeletal muscle myoblasts were seeded onto coverslips in SKM-M medium (Tebu-Bio, France) at a density of 3×10^4 cells/cm^2 and incubated overnight at standard culture conditions (37° C., 95% humidity, 5% CO2). Myoblast differentiation to myocyte was then induced with specific differentiation medium (Skeletal Muscle Cell Differentiation Medium, SKM-D medium) and monitored for 7 more days. Differentiated cells were treated with non-cytotoxic concentrations of peptide Ac-SEQ ID NO: 8-NH2 (0.05 mg/mL and 0.5 mg/mL) for additional 48 hours.
Once incubation was finished, cells were fixed with 4% PFA and permeabilized using 0.1% (v/v) Triton (Sigma, USA). Myosin was then stained with 0.5 mg/ml myosin heavy chain antibody during 2 h at room temperature. After proper washing, actin protein was labelled with 50 μg/ml Phalloidin (red) (Sigma, USA) for 1 h and, after washing, cells were stained with 4 μg/ml of the secondary antibody Goat anti-Mouse IgG for 1 h. Finally, nuclei were stained with 3.5 μg/ml Hoescht marker for 10 min (Sigma, USA).
Microscopic images were acquired using the 5× and 10× objectives. Three replicates were used for each condition and images of three to four fields of each coverslip were acquired using the same settings.
Images were analyzed using Image J software. Shortly, threshold was adjusted to select myosin and mean fluorescent was measured. The number of positive cells was counted using DAPI staining. Myosin mean fluorescent intensity was divided by the number of myosin-positive cells. Finally, all data was normalized as follows to obtain the % of myosin compared to non-treated cells: % vs. control=(fluorescence per cell in treated wells/fluorescence per cell in non-treated wells)×100.

In another assay the test system is SH-SY5Y cells. The assay is described as follows: Exocytosis levels and delay (fluorescent exocytosis reporter). It is filed as cell-based, human. To be noted: 0.01 mg/mL, 1 hour, PMA + ionomycin, vs non-treated cells. The procedure: The potential of said peptide Ac-SEQ ID NO: 8-NH2 to modulate the exocytosis of vesicles containing neurotransmitters from a neuroblastoma cell line was evaluated in vitro using SH-SY5Y cells, by fluorescence imaging using a Zeiss axiovert 200 inverted epifluorescence microscope with a 20× objective and a Xenon lamp.
SH-SY5Y cells (Sigma, USA) were cultured in T25 flasks in supplemented medium (DMEM/F12, Gibco, USA). Above 90% confluence, cells were trypsinized with 1 ml of 0.5% (v/v) Trypsin-EDTA. Next, 5 mL of said supplemented medium was added and cell concentration determined. Cells were seeded onto polyLysine-coated 12 mm-treated coverslips in 24 well-plates at 15×10^4 cells/well in supplemented medium (Gibco, USA) and incubated at regular conditions (37° C., 5% CO2). After 24 h cell seeding, cells were transfected with exocytosis reporter using Lipofectamine™ 3000 (Invitrogen, USA) following manufacturer's instructions. Reporter construct contained fusion protein made up of intraluminal-specific proteins and a pH-sensitive fluorescent protein.
For exocytosis monitorization, after 48 h of protein expression, cells were incubated with 0.01 mg/mL of Ac-SEQ ID NO: 8-NH2 peptide or 1 mg/mL of the benchmark acetyl hexapeptide-8 for 1 h at 37° C. and 5% CO2. Non-treated cells were used as basal control. […] Fluorescence imaging was done for the last 10 min of the stimulation protocol. Fluorescence signal of exocytosis reporter was monitored employing 483-512 nm excitation-filter and 525-530 nm emission-filter. […]
Non-treated cells were assayed in N=4 independent experiments with n=16 coverslips (483 cells measured), acetyl hexapeptide-8-treated cells in N=3 independent experiments with n=10 coverslips (328 cells measured) and Ac-SEQ ID NO: 8-NH2-treated cells in N=3 independent experiments with n=8 coverslips (240 cells measured). Cells were selected to individually monitor fluorescence intensity and time-course. Fluorescence peak evoked by ionomycin addition was used to quantify exocytosis by calculating the Area under the curve (AUC) using GraphPad software. Two parameters were defined and analyzed: • Exocytosis levels: For individual cells, total peak area was obtained from AUC analysis and was normalized by the baseline that was defined as fluorescence intensity 3-cycles before lonomycin injection. • Exocytosis delay: For individual cells, response time (min) was obtained from AUC analysis as time frame between lonomycin injection (Y) and initiation of peak (firstX).
Fluorescence values were further normalized as percentage change to non-treated cells on each experiment as: (exocytosis level of treated cells/exocytosis levels non-treated cells)×100 and (response time of treated cells/response time of non-treated cells)×100. […]

With “Ac-His-Ala-Leu-Arg-Phe-Trp-NH2 [Ac-SEQ ID NO: 8-NH2]”, the “reduction of calcium influx” value in assay [1] (0.01 mg/mL) was −6%; in assay [1] (0.05 mg/mL), −20%; in assay [1] (0.1 mg/mL) it was −30%. Besides, the “reduction of myosin heavy chain protein levels” value with myosin heavy chain (0.05 mg/mL) is −26%; with myosin heavy chain (0.5 mg/mL), −38%. In addition, the “myosin heavy chain protein levels (representative images, FIG. 5)” value with myosin heavy chain (0.05 mg/mL) was “reduction of myosin heavy chain protein levels”. In addition, in the assay on SH-SY5Y cells, the “change of exocytosis levels” value is given as −14%. Further, the “exocytosis response time delay” value with SH-SY5Y cells worked out at 24%.
